The subject of one series is ICP-27. Description: Western blot of ICP-27 in HSV-1 infected Vero cells. The class given is cell-based. The conditions noted are these: 105 μM, 24 hours. The protocol:
(§1) ICP-4 and ICP-27 are immediate-early regulatory proteins of HSV-1 that are required for efficient replication of this virus. To determine whether ICP-4 or ICP-27 production is altered by treatment with a hydroxylated tolan, separate cultures of Vero cells were infected with HSV-1 at an moi of 1 and incubated in control medium or medium containing 105 μM 4,4′-dihydroxytolan for 24 hours. Infected cells were scraped from the flask, collected by centrifugation, and resuspended in cold tris-buffered saline, pelleted by centrifugation, and the cell pellet frozen at −70° C. Proteins were extracted from the thawed pellets, separated by 6–15% SDS-PAGE, and assayed on a Western blot by reacting with mouse monoclonal antibody to ICP-4 or ICP-27 from Goodwin Institute for Cancer Research Inc., FL.
In general terms: In western blotting, separated proteins are transferred to a membrane and probed.

In a further series the test system is ICP-4. Description: Western blot of ICP-4 in HSV-1 infected Vero cells. The format is cell-based. The conditions noted are these: 105 μM, 24 hours. The protocol:
as §1

Series [1] deals with Vero cells. Description: Cell viability studies, uninfected Vero cells. The conditions noted are these: 105 μM, 24 hours. The format is cell-based, African green monkey. The protocol:
Cell viability studies confirmed that treatment of uninfected Vero cells with 105 μM 4,4′-dihydroxytolan for 24 hours was not toxic.

For series [2], the system named is HSV-1. Put plainly: Inhibition of HSV-1 replication in vitro, plaque assay (Example 9). The format is cell-based. The protocol: Tissue culture cells were infected with HSV-1 and incubated in solutions containing Tolan-5, Tolan-10 and Tolan-11. The concentrations used ranged from one-half to three-quarters of the calculated CD50 for the respective tolan at 48 hours of treatment. Specifically, Vero cells were infected with HSV-1 at a multiplicity of infection of one for one hour. At the end of that time, the cultures were rinsed with media and fresh media containing various concentration of the respective tolan were added. Infected control cultures were incubated in media lacking hydroxylated tolan. At 1, 24, 48, and 72 hours after infection, samples were frozen at −70° C. until assayed for new virus production. Virus production was quantified by the plaque assay for each time point of infection. The results, which are expressed as plaque forming units per milliliter (pfu/ml).

Series [3] relates to HSV-1. Description: HSV-1 plaque assay, time of drug addition, Vero cells, moi 10 (Example 4). The format is cell-based. The protocol:
Vero cell cultures were infected with HSV-1 as described above in Example 3 except that the cells were infected with virus at an moi of 10. Under these conditions nearly all of the cells are infected with virus during the initial one hour incubation period. Following removal of unattached virus, the virally-infected cultures were incubated in control medium lacking a hydroxylated tolan or medium to which 105 μM 4,4′-dihydroxytolan had been added at 1, 3, 6, or 9 hours after removal of the unattached virus. At 24 hours after infection, the number of pfu's present in the cells and medium of untreated and hydroxylated tolan-treated cultures was determined.

Series [4] concerns Vero cells. Put plainly: MTT colorimetric cell toxicity assay. The format is cell-based, African green monkey. The protocol: Cell toxicity of the tolans 4,4′-dihydroxytolan (“Tolan-5”), 3,4′,5-trihydroxytolan (“Tolan-10”) and 4-hydroxy-4′-trifluoromethyltolan (“Tolan-11”) was determined using an MTT assay. In this assay, cells are exposed to MTT, 3-(4,5-dimethylthiazol-2-yl)-2,5-diphenyltetrazolium bromide, which is taken into the cells and reduced by mitochondrial dehydrogenase to a purple formazan, a large molecule which is unable to pass through intact cell membranes, and therefore accumulates in healthy cells. The ability of cells to reduce MTT is an indication of mitochondrial integrity and activity, which may be interpreted as a measure of viability. Solubilization of the cells results in the liberation of the product which can readily be detected spectrophotometrically.
Various concentrations of Tolan-5, Tolan-10 and Tolan-11 were added to 96 well tissue culture plates that had been seeded with Vero cells. The plates were then incubated at 37° C. in 5% CO2/95% air for 24, 48 and 72 hours. At the end of each time point, 50 μl of MTT (1 mg/ml) was added to the tissue culture plates which were then incubated for an additional four hours. At the end of that time, dimethyl sulfoxide (DMSO) was added to dissolve the cells and formazan, and the plates were read spectrophotometrically at 540 nm. […] Presented in Table I below are the toxicity results for Tolan-5, Tolan-10, and Tolan-11 measured at 24, 48 and 72 hours of treatment.

The test system of series [5] is HSV-1. Description: Reversibility of inhibition of HSV replication, Vero cells, moi 1 (Example 5). The class given is cell-based. The conditions noted are these: 105 μM. The protocol:
Vero cells were grown to confluence and infected with HSV-1 at an moi of 1 and then incubated in media lacking a hydroxylated tolan (control cultures) or in media containing 105 μM 4,4′-dihydroxytolan. One set of infected cells was maintained in the dihydroxylatedtolan for a period of 72 hours. In another set of infected cells the dihydroxytolan-containing media was replaced with media lacking a hydroxylated tolan at 24 hours. In another set of cells the tolan-containing media was replaced with media lacking the hydroxylated tolan at 48 hours after infection. The number of infectious HSV particles produced by each set of infected cells was determined by plaque assay.

In series [6] the test system is HSV-1. Description: Direct inactivation of HSV-1 inoculum, residual pfu by plaque assay. The conditions noted are these: 105 μM, room temperature, 1 to 60 minutes, data not shown. The class given is cell-based. The protocol: To determine whether hydroxylated tolans block formation of infectious herpes virus particles by directly inactivating the virus, a standard inoculum of HSV-1 was mixed with 105 μM 4,4′-dihydroxytolan in medium, with 0.2% DMSO in medium, or with media alone and placed at room temperature. The number of residual pfu's present at 1, 10, 30, and 60 minutes after addition of each respective solution to the virus was determined by plaque assay.

Series [7] has as its system HSV-1. Put plainly: HSV-1 plaque assay, infected Vero cells, moi 1 (Example 3). The class given is cell-based. The protocol: Cultures of African green monkey kidney cells (Vero) cells, obtained from the American Type Culture Collection, Rockville, Md. were grown to confluence in Medium 199 supplemented with 5% fetal bovine serum, 0.075% NaHCO3, and 50 μg/ml gentamycin sulfate in 25 cm^2 tissue culture flasks. Cells were infected with HSV-1 at a multiplicity of infection (moi) of one and incubated at room temperature for one hour to allow for virus attachment to and penetration of the cell. Under these conditions, approximately half of the cells are infected with virus. Thereafter, the cultures were rinsed three time with media and incubated in medium containing 50 μM or 75 μM 4, 4′-dihydroxytolan prepared in 0.2% dimethyl-sulfoxide (DMSO). Controls were treated identically, but were incubated without the dihyroxylated tolan. For purposes of comparison, HSV cell were also inoculated in the presence of 52.5 μM 4,4′-dihydroxystilbene. Due to the higher cell toxicity of the stilbene, cells were not incubated in the presence of 75 μM dihydroxystilbene.
Upon addition of the medium to the cultures and at 24 hours time periods thereafter, i.e., 0 hours, 24 hours, 48 hours, and 72 hours after addition of the drug, cells and medium were frozen at −70° C. Samples were then thawed, sonicated and titrated on Vero cells to determine the number of plaque forming units (pfu's) of virus produced by each culture.

This note sets out measurements from patent publication US7094809B2, “Method of treating subject infected with Neisseria gonorrhea” (Northeastern Ohio Universities College of Medicine, priority 2000, dated 2006).

SMILES strings stand for the structures.

What is called inhibition is the share of the control response that was lost under treatment.

Regarding `Oc1ccc(C#Cc2ccc(O)cc2)cc1` [Tolan-5, 4,4′-dihydroxytolan], in the series on ICP-27, the “synthesis of ICP-27” value is reported as “significantly reduced”. Further, the “synthesis of ICP-4” value in the series on ICP-4 was “significantly reduced”. In the series on Vero cells [1], the “toxicity to uninfected Vero cells” value was “not toxic”. Moreover, the “inhibition of virus, comparison of concentrations” value in the series with HSV-1 [2] (75 μm versus 50 μm) is on record as “more inhibitory to the virus at 75 μm that at 50 μm”. Also, the HSV-1 production entry in the series on HSV-1 [2] (Vero cells, moi 1, up to 72 hours) was “inhibited HSV-1 production”. Moreover, the “inhibition of production of virus” value in the series with HSV-1 [3] (105 μM added 6 hours after infection, pfu at 24 hours, moi 10) is “approximately 90%”. For the same molecule, in the series with HSV-1 [3] (105 μM added one hour after infection, pfu at 24 hours, moi 10), the “reduction of production of virus” value was “more than 99%”. The inhibition at 105 µM in the series with HSV-1 [3] (Human alphaherpesvirus 1, Vero, 105 μM added 3 hours after infection, pfu at 24 hours, moi 10, read-out: inhibition of production of virus) is around 90%. In the series on HSV-1 [3] (added 9 hours after infection), the “formation of infectious virus particles” value is recorded as “not inhibited”. Besides, the CD50 was determined as 106 µM in the series on Vero cells [4] (48 hours) and 84.0 µM with Vero cells [4] (72 hours). Moreover, the “reversibility of inhibitory effect on HSV replication” value in the series with HSV-1 [5] (drug removed at 24 or 48 hours) is “reversible”. In addition, in the series on HSV-1 [5] (prolonged period of time, mammalian cells), the “cell killing on prolonged exposure” value is on record as “does not kill the cells”. In addition, in the series with HSV-1 [6], the “direct inactivation of HSV” value is given as “did not directly inactivate HSV”. The “reduction of new virus production” value with HSV-1 [7] (50 μM) stood at 95%. In the series with HSV-1 [7] (75 μM continuously, by 72 hours), the “infectious HSV particles in cultures” value is recorded as “virtually undetectable”. Besides, the inhibition at 75 µM with HSV-1 [7] (Human alphaherpesvirus 1, 75 μM, 24 hours, Vero cells, moi 1, read-out: inhibition of formation of infectious virus particles) was above 99%.
